{
  "source": "ChEMBL document CHEMBL3352091",
  "about": "“Natural product-based design, synthesis and biological evaluation of anthra[2,1-d]thiazole-6,11-dione derivatives from rhein as novel antitumour agents” (Eur J Med Chem, 2014)",
  "key": {"HeLa [1]": {"test_system": "HeLa", "assay": "Antitumor activity against human HeLa cells after 3 days by SRB assay", "format": "functional, cell-based", "conditions": "72 h"}, "A549 [2]": {"test_system": "A549", "assay": "Antitumor activity against human A549 cells after 3 days by SRB assay", "format": "functional, cell-based", "conditions": "A549, 72 h"}, "A549 [3]": {"test_system": "A549", "assay": "Potency index, ratio of IC50 for rhein to IC50 for test compound against human A549 cells after 3 days by SRB assay", "format": "functional"}, "HeLa [4]": {"test_system": "HeLa", "assay": "Potency index, ratio of IC50 for rhein to IC50 for test compound against human HeLa cells after 3 days by SRB assay", "format": "functional"}},
  "note": "pIC50: −log10 of the molar value.",
  "data": [
    {"smiles": "CCN1CCN(CCN2CCN(c3nc4cc(O)c5c(c4s3)C(=O)c3cccc(O)c3C5=O)CC2)CC1", "values": [
      {"measurement": "pIC50", "setting": "HeLa [1]", "value": 4.15},
      {"measurement": "pIC50", "setting": "A549 [2]", "value": 4.63}
    ]},
    {"smiles": "O=C1c2c(O)cccc2C(=O)c2c1c(O)cc1nc(N3CCCC3)sc21", "values": [
      {"measurement": "pIC50", "setting": "HeLa [1]", "value": 4.35},
      {"measurement": "pIC50", "setting": "A549 [2]", "value": 3.83}
    ]},
    {"smiles": "O=C1c2c(O)cccc2C(=O)c2c1c(O)cc1nc(N3CCN(CCO)CC3)sc21", "values": [
      {"measurement": "pIC50", "setting": "HeLa [1]", "value": 5.35},
      {"measurement": "pIC50", "setting": "A549 [2]", "value": 5.19}
    ]},
    {"smiles": "CC(C)N(CCN1CCN(c2nc3cc(O)c4c(c3s2)C(=O)c2cccc(O)c2C4=O)CC1)C(C)C", "values": [
      {"measurement": "pIC50", "setting": "HeLa [1]", "value": "< 4.00"},
      {"measurement": "pIC50", "setting": "A549 [2]", "value": "< 4.00"}
    ]},
    {"smiles": "CC(C)N1CCN(CCN2CCN(c3nc4cc(O)c5c(c4s3)C(=O)c3cccc(O)c3C5=O)CC2)CC1", "values": [
      {"measurement": "pIC50", "setting": "HeLa [1]", "value": "< 4.00"},
      {"measurement": "pIC50", "setting": "A549 [2]", "value": 4.27}
    ]},
    {"smiles": "O=C1c2c(O)cccc2C(=O)c2c1c(O)cc1nc(N3CCCCC3CCO)sc21", "note": "(centres undefined)", "values": [
      {"measurement": "pIC50", "setting": "HeLa [1]", "value": 4.78},
      {"measurement": "pIC50", "setting": "A549 [2]", "value": 4.71}
    ]},
    {"smiles": "CCN(CC)c1nc2cc(O)c3c(c2s1)C(=O)c1cccc(O)c1C3=O", "values": [
      {"measurement": "pIC50", "setting": "HeLa [1]", "value": 4.06},
      {"measurement": "pIC50", "setting": "A549 [2]", "value": 3.97}
    ]},
    {"smiles": "CC1CCN(c2nc3cc(O)c4c(c3s2)C(=O)c2cccc(O)c2C4=O)CC1", "values": [
      {"measurement": "pIC50", "setting": "HeLa [1]", "value": 4.22},
      {"measurement": "pIC50", "setting": "A549 [2]", "value": 4.18}
    ]},
    {"smiles": "CCOC(=O)N1CCN(c2nc3cc(O)c4c(c3s2)C(=O)c2cccc(O)c2C4=O)CC1", "values": [
      {"measurement": "pIC50", "setting": "HeLa [1]", "value": 4.16},
      {"measurement": "pIC50", "setting": "A549 [2]", "value": 4.26}
    ]},
    {"smiles": "CCN1CCN(c2nc3cc(O)c4c(c3s2)C(=O)c2cccc(O)c2C4=O)CC1", "values": [
      {"measurement": "pIC50", "setting": "HeLa [1]", "value": 5.37},
      {"measurement": "pIC50", "setting": "A549 [2]", "value": 5.27},
      {"measurement": "Ratio IC50", "setting": "A549 [3]", "value": 30},
      {"measurement": "Ratio IC50", "setting": "HeLa [4]", "value": 30}
    ]},
    {"smiles": "CC1CCN(CCN2CCN(c3nc4cc(O)c5c(c4s3)C(=O)c3cccc(O)c3C5=O)CC2)CC1", "values": [
      {"measurement": "pIC50", "setting": "HeLa [1]", "value": 4.09},
      {"measurement": "pIC50", "setting": "A549 [2]", "value": 4.42}
    ]},
    {"smiles": "O=C1c2c(O)cccc2C(=O)c2c1c(O)cc1nc(N3CCN(CCN4CCOCC4)CC3)sc21", "values": [
      {"measurement": "pIC50", "setting": "HeLa [1]", "value": "< 4.00"},
      {"measurement": "pIC50", "setting": "A549 [2]", "value": "< 4.00"}
    ]},
    {"smiles": "O=CN1CCCN(c2nc3cc(O)c4c(c3s2)C(=O)c2cccc(O)c2C4=O)CC1", "values": [
      {"measurement": "pIC50", "setting": "HeLa [1]", "value": 4.71},
      {"measurement": "pIC50", "setting": "A549 [2]", "value": 4.82}
    ]},
    {"smiles": "CN(C)CCN1CCN(c2nc3cc(O)c4c(c3s2)C(=O)c2cccc(O)c2C4=O)CC1", "values": [
      {"measurement": "pIC50", "setting": "HeLa [1]", "value": "< 4.00"},
      {"measurement": "pIC50", "setting": "A549 [2]", "value": 4.48}
    ]},
    {"smiles": "CN(C)C1CCN(c2nc3cc(O)c4c(c3s2)C(=O)c2cccc(O)c2C4=O)CC1", "values": [
      {"measurement": "pIC50", "setting": "HeLa [1]", "value": 4.93},
      {"measurement": "pIC50", "setting": "A549 [2]", "value": 5.20}
    ]},
    {"smiles": "CCCCN(CCCC)CCN1CCN(c2nc3cc(O)c4c(c3s2)C(=O)c2cccc(O)c2C4=O)CC1", "values": [
      {"measurement": "pIC50", "setting": "HeLa [1]", "value": "< 4.00"},
      {"measurement": "pIC50", "setting": "A549 [2]", "value": 4.24}
    ]},
    {"smiles": "CC(C)N(c1nc2cc(O)c3c(c2s1)C(=O)c1cccc(O)c1C3=O)C(C)C", "values": [
      {"measurement": "pIC50", "setting": "HeLa [1]", "value": 3.93},
      {"measurement": "pIC50", "setting": "A549 [2]", "value": "< 4.00"}
    ]},
    {"smiles": "CCN(CC)CCN1CCN(c2nc3cc(O)c4c(c3s2)C(=O)c2cccc(O)c2C4=O)CC1", "values": [
      {"measurement": "pIC50", "setting": "HeLa [1]", "value": "< 4.00"},
      {"measurement": "pIC50", "setting": "A549 [2]", "value": "< 4.00"}
    ]},
    {"smiles": "CN(CC(O)CO)c1nc2cc(O)c3c(c2s1)C(=O)c1cccc(O)c1C3=O", "note": "(centres undefined)", "values": [
      {"measurement": "pIC50", "setting": "HeLa [1]", "value": 4.63},
      {"measurement": "pIC50", "setting": "A549 [2]", "value": 4.52}
    ]},
    {"smiles": "O=C1c2c(O)cccc2C(=O)c2c1c(O)cc1nc(N3CCN(C4CC4)CC3)sc21", "values": [
      {"measurement": "pIC50", "setting": "HeLa [1]", "value": 4.24},
      {"measurement": "pIC50", "setting": "A549 [2]", "value": 4.18}
    ]},
    {"smiles": "O=C1c2c(O)cccc2C(=O)c2c1c(O)cc1nc(N3CCCC(O)C3)sc21", "note": "(centres undefined)", "values": [
      {"measurement": "pIC50", "setting": "HeLa [1]", "value": 4.57},
      {"measurement": "pIC50", "setting": "A549 [2]", "value": 4.68}
    ]},
    {"smiles": "CN1CCN(c2nc3cc(O)c4c(c3s2)C(=O)c2cccc(O)c2C4=O)CC1", "values": [
      {"measurement": "pIC50", "setting": "HeLa [1]", "value": 4.56},
      {"measurement": "pIC50", "setting": "A549 [2]", "value": 4.69}
    ]},
    {"smiles": "O=C1c2c(O)cccc2C(=O)c2c1c(O)cc1nc(N3CCOCC3)sc21", "values": [
      {"measurement": "pIC50", "setting": "HeLa [1]", "value": 4.52},
      {"measurement": "pIC50", "setting": "A549 [2]", "value": 4.48}
    ]},
    {"smiles": "O=C1c2c(O)cccc2C(=O)c2c1c(O)cc1nc(N3CCN(CCN4CCCCC4)CC3)sc21", "values": [
      {"measurement": "pIC50", "setting": "HeLa [1]", "value": 4.06},
      {"measurement": "pIC50", "setting": "A549 [2]", "value": 4.33}
    ]},
    {"smiles": "O=C1c2c(O)cccc2C(=O)c2c1c(O)cc1nc(N3CCN(CCN4CCCC4)CC3)sc21", "values": [
      {"measurement": "pIC50", "setting": "HeLa [1]", "value": 4.09},
      {"measurement": "pIC50", "setting": "A549 [2]", "value": 4.15}
    ]},
    {"smiles": "O=C(O)c1cc(O)c2c(c1)C(=O)c1cccc(O)c1C2=O", "note": "[RHEIN]", "values": [
      {"measurement": "pIC50", "setting": "HeLa [1]", "value": 4.04},
      {"measurement": "pIC50", "setting": "A549 [2]", "value": 4.02}
    ]},
    {"smiles": "O=C1c2c(O)cccc2C(=O)c2c1c(O)cc1nc(N3CCCCC3)sc21", "values": [
      {"measurement": "pIC50", "setting": "HeLa [1]", "value": 4.25},
      {"measurement": "pIC50", "setting": "A549 [2]", "value": "< 4.00"}
    ]},
    {"smiles": "CC(C)N1CCN(c2nc3cc(O)c4c(c3s2)C(=O)c2cccc(O)c2C4=O)CC1", "values": [
      {"measurement": "pIC50", "setting": "HeLa [1]", "value": 4.83},
      {"measurement": "pIC50", "setting": "A549 [2]", "value": 4.82}
    ]},
    {"smiles": "CN1CCN(CCN2CCN(c3nc4cc(O)c5c(c4s3)C(=O)c3cccc(O)c3C5=O)CC2)CC1", "values": [
      {"measurement": "pIC50", "setting": "HeLa [1]", "value": 4.10},
      {"measurement": "pIC50", "setting": "A549 [2]", "value": 4.62}
    ]},
    {"smiles": "CN(CCO)c1nc2cc(O)c3c(c2s1)C(=O)c1cccc(O)c1C3=O", "values": [
      {"measurement": "pIC50", "setting": "HeLa [1]", "value": 4.51},
      {"measurement": "pIC50", "setting": "A549 [2]", "value": 4.34}
    ]},
    {"smiles": "O=C1c2c(O)cccc2C(=O)c2c1c(O)cc1nc(N3CCCCCC3)sc21", "values": [
      {"measurement": "pIC50", "setting": "HeLa [1]", "value": 4.39},
      {"measurement": "pIC50", "setting": "A549 [2]", "value": 4.40}
    ]}
  ]
}
